Measurements from patent publication US6399570B1, “Antimicrobial/endotoxin neutralizing polypeptide” (priority 1999, dated 2002).

Test system: RAW 264.7 cells
Assay: Endotoxin induced TNF-α secretion by RAW 264.7 cells
Format: cell-based, murine
Procedure: Suppression of endotoxin-induced TNF-α secretion by a macrophage cell line RAW 264.7 was also measured (Kelly et al., Infect. Immun. 59: 4491-6 (1991)). RAW 264.7 cells secret TNF-α upon exposure to endotoxin (M. R. Ruff and G. E. Gifford, Lymphokines 2: 235-272 (1981)). […] Similar to the results of the LAL assay, the potency of LF-33 varied depending on the type of endotoxin. The LF-33 concentration needed to suppress 50% TNF-α secretion induced by endotoxin (10 ng/ml) was approximately 0.01 μM for E. coli LPS and lipid A, 0.1 μM for LPS from P. aeruginosa, and 0.5 μM for LPS from S. abortus equi and N. meningitidis.
Endotoxin induced TNF-α secretion by RAW 264.7 cells. The murine macrophage cell line RAW 264.7 was obtained from the American Type Culture Collection (ATCC, Rockville, Md.) and maintained as described previously (Jeremy, B., Immunol. Today. 16: 417-419 (1995)). The concentration of endotoxin in all buffers and media was controlled to below 0.1 EU/ml. The following protocol was essentially described before and used here with minor modifications (Kelly et al., Infect. Immun. 59: 4491-6 (1991)). Each well of a 96-well tissue culture plate was seeded with 150 μl RAW 264.7 cells at 10^6 cells per ml DMEM (Life Technologies, Gaithersburg, Md.) supplemented with 10% heat-treated fetal bovine serum (Life Technologies), 25 mM HEPES (N-2-hydroxyethylpiperazine-N′-2-ethanesulfonic acid; pH 7.3), penicillin (60 U/ml) and streptomycin (60 μg/ml). After overnight incubation at 37° C. in a 6% CO2 incubator, the medium was aspirated and cells washed with 3-changes of endotoxin-free Hank's balanced salt solution (HBSS, Life Technologies) supplemented with 25 mM HEPES (pH 7.3). Control endotoxin (10 ng/ml) and test materials were prepared in HBSS-HEPES. After incubation in a 37° C. water bath for 1 h, 0.2 ml of these solutions was added in triplicate to each well and incubated at 37° C. for 6 h. The supernatants were then collected and stored at −70° C. before the measurement of […] activity. Controls included HBSS-HEPES and test materials in the absence of endotoxin. TNF-α activity of the medium and test materials was below […]. The human serum used in some experiments was a pool from normal donors.
Determination of TNF activity. TNF-α activity in the culture supernatant was determined based on its cytotoxicity for the mouse fibrosarcoma cell line WEHI 164 cells (ATCC). […] The antibody at 1:100 dilution completely eliminated the cytotoxicity in the culture supernatant of the RAW 264.7 cell stimulated by endotoxin and in the mouse sera collected 1 h after intraperitoneal injection of endotoxin.
Briefly, the 96-well tissue culture plates were seeded with 100 μl WEHI164 cells (5×10^4 cells) in RPMI-1640 medium (Life Technologies) containing 10% heat-treated fetal bovine serum, 25 mM HEPES (pH 7.3), penicillin (60 U/ml), streptomycin (60 μg/ml), and actinomycin D (4 μg/ml). After a 2-h incubation at 37° C. in a 6% CO2 incubator, 10 μl twofold serially diluted samples (culture supernatants) or standards (murine recombinant TNF-α, Genzyme) was added to each well, and incubated for 20 h. Cell viability was then determined by the addition of 10 μl MTT (Thiazolyl blue, Sigma) stock solution (5 mg/ml in saline) to each well, and the incubation was allowed to continue for 6 h. 180 μl of acid-isopropanol (containing 40 mM HCl) was added to dissolve the generated dark blue crystals. The plate was read at 570 nm with a reference of 630 nm in a microplate reader. The amount of TNF-α that led to 50% killing of the seeded cells was defined as one unit, equivalent to approximately 15 pg of recombinant TNF-α under the present condition. A standard curve was obtained by incubating known amounts of the recombinant TNF-α with the WEHI cells.

CSCC[C@H](NC(=O)[C@H](CC(N)=O)NC(=O)[C@H](CCCNC(=N)N)NC(=O)[C@H](CCC(N)=O)NC(=O)[C@H](Cc1c[nH]c2ccccc12)NC(=O)[C@H](CCC(N)=O)NC(=O)[C@H](Cc1ccccc1)NC(=O)[C@H](CS)NC(=O)[C@H](CCCCN)NC(=O)[C@@H](NC(=O)[C@H](C)NC(=O)[C@H](CCC(=O)O)NC(=O)[C@@H]1CCCN1C(=O)[C@H](CCC(N)=O)NC(=O)[C@H](CO)NC(=O)[C@@H](NC(=O)[C@H](C)NC(=O)[C@H](CS)NC(=O)[C@H](Cc1c[nH]c2ccccc12)NC(=O)[C@H](CCC(N)=O)NC(=O)[C@@H](N)C(C)C)C(C)C)[C@@H](C)O)C(=O)N[C@@H](CCCNC(=N)N)C(=O)N[C@@H](CCCCN)C(=O)N[C@H](C(=O)N[C@@H](CCCNC(=N)N)C(=O)NCC(=O)N1CCC[C@H]1C(=O)O)C(C)C [LF-27]
TNF-α secretion induced by Lipid A (agent 3 μM, endotoxin 10 ng/ml, control 2,386): 3,182 +/− 412 pg/ml | TNF-α secretion induced by S. abortus LPS (agent 3 μM, endotoxin 10 ng/ml, control 3,969): 3,985 +/− 497 pg/ml | TNF-α secretion induced by P. aer. LPS (agent 3 μM, endotoxin 10 ng/ml, control 4,813): 4,633 +/− 603 pg/ml | TNF-α secretion induced by E. coli LPS (agent 3 μM, endotoxin 10 ng/ml, control 4,928): 4,912 +/− 588 pg/ml | TNF-α secretion induced by N. min. LPS (agent 3 μM, endotoxin 10 ng/ml, control 5,658): 7,306 +/− 1008 pg/ml | effect on endotoxin-induced TNF-α secretion (equal molar concentration of LF-27 or 10% human serum): no effect
